Measurements from paper PMC8351955, “Targeting Mycobacterium tuberculosis response to environmental cues for the development of effective antitubercular drugs” (PLoS Biology, 2021).
Where two headings read alike, the source gives them in different places.

Tests used:
Assay in all cases: microbe, parasite or virus in culture
Type in all cases: cell-based, Mycobacterium tuberculosis
[1] = test system: CDC1551(rv2390c′::GFP) reporter Mtb strain, response to high [Cl−]; settings: for activity at 10 µM / activity at 20 µM / IC50: Mycobacterium tuberculosis; for activity at 10 µM / activity at 20 µM: 144 h; for activity at 20 µM: read-out: rv2390c'::GFP validation assay NPA% at 20 µM compound; for IC50: read-out: ShuminTan.MtbChloride.Validation: IC50; for ShuminTan.MtbChloride.Primary: NPI%: primary screen, Sheet2
[2] = test system: CDC1551(rv1405c′::GFP) reporter Mtb strain; settings: for activity at 10 µM / activity at 20 µM / IC50: Mycobacterium tuberculosis; for activity at 10 µM: read-out: rv1405c'::GFP secondary assay NPA% at 10 µM compound; for activity at 20 µM: read-out: rv1405c'::GFP secondary assay NPA% at 20 µM compound; for IC50: read-out: ShuminTan.MtbChloride.Secondary: IC50
[3] = test system: Mtb growth in J774 murine macrophage-like cells; settings: for NPI (Mtb growth in J774 cells), average: Fig 1F; for inhibition at 10 µM / inhibition at 20 µM / IC50: Mycobacterium tuberculosis; for inhibition at 10 µM: read-out: J774 tertiary assay % inhibition compared to Rif at 10 µM compound; for IC50: J774 dose response 0.039-20 µM, read-out: ShuminTan.Mtb.Validation.Macrophage: IC50
[4] = pH 6.4, […], DMSO positive control = 100%, read-out: Primary screen rv2390c'::GFP NPA%
[5] = 10 µM, pH 6.4, 250 mM NaCl, 6 days, read-out: rv2390c'::GFP validation assay NPA% at 10 µM compound
[6] = 0.078125 µM, 5 µM rifampicin = 100% inhibition
[7] = J774, 144 h, read-out: J774 tertiary assay % inhibition compared to Rif at 20 µM compound
[8] = J774, read-out: %inhibition compared to Rif in J774 at 20 uM

Structure (SMILES) | activity at 10 µM [1, 4] | activity at 10 µM [1, 5] | activity at 20 µM ([1]; pH 6.4, 250 mM NaCl, 6 days) | activity at 10 µM [2] | activity at 20 µM [2] | inhibition at 10 µM ([3]; J774, 144 h) | inhibition at 20 µM [3, 7] | also measured
O=C(c1cnn2ccccc12)N1CCCC(CCc2cccc(C(F)(F)F)c2)C1 (stereo not shown) [C5 analog, FC(F)(F)C1=CC=CC(CCC2CCCN(C2)C(=O)C2=C3C=CC=CN3N=C2)=C1] | 167% | 112 ± 12% | 156 ± 9.9% | 110 ± 7.2% | 150 ± 12% | 21.4 ± 7.7% | 48.2 ± 1.5% | NPI (Mtb growth in J774 cells), average [3, 6]: -4.805%; NPI (Mtb growth in J774 cells), average ([3]; 0.15625 µM): -8.165%; NPI (Mtb growth in J774 cells), average ([3]; 0.3125 µM): -7.245%; NPI (Mtb growth in J774 cells), average ([3]; 0.625 µM): 7.86%; NPI (Mtb growth in J774 cells), average ([3]; 1.25 µM): -0.385%; NPI (Mtb growth in J774 cells), average ([3]; 2.5 µM): 11.205%; NPI (Mtb growth in J774 cells), average ([3]; 5 µM): 9.965%; NPI (Mtb growth in J774 cells), average ([3]; 10 µM): 21.35%; NPI (Mtb growth in J774 cells), average ([3]; 20 µM): 48.15%
CCCSc1ncc(CN2CCN(c3ncnc4[nH]cnc34)CC2)cn1 [C6 analog, CCCSC1=NC=C(CN2CCN(CC2)C2=NC=NC3=C2N=CN3)C=N1] | 153% | 124 ± 10.1% | 158 ± 6.1% | 151 ± 6.4% | 154 ± 8.1% | 41.2 ± 0.6% | 53.2 ± 1.6% | NPI (Mtb growth in J774 cells), average [3, 6]: -6.22%; NPI (Mtb growth in J774 cells), average ([3]; 0.15625 µM): 3.8025%; NPI (Mtb growth in J774 cells), average ([3]; 0.3125 µM): 9.675%; NPI (Mtb growth in J774 cells), average ([3]; 0.625 µM): 16.75%; NPI (Mtb growth in J774 cells), average ([3]; 1.25 µM): 32.05%; NPI (Mtb growth in J774 cells), average ([3]; 2.5 µM): 36.55%; NPI (Mtb growth in J774 cells), average ([3]; 5 µM): 46.75%; NPI (Mtb growth in J774 cells), average ([3]; 10 µM): 41.15%; NPI (Mtb growth in J774 cells), average ([3]; 20 µM): 53.2%
Cc1c(Cl)cccc1S(=O)(=O)Nc1nn(C(C)(C)C)cc1C#N [RU-0208737, CC1=C(C=CC=C1Cl)S(=O)(=O)NC1=NN(C=C1C#N)C(C)(C)C] | 47.8% | 53.8 ± 2.8% | 40.2 ± 8.5% | 50.8 ± 1.7% | 84.4 ± 13.1% | 9.6 ± 0.7% | 20.9 ± 6.9% | 
CCOc1ccc(OCCN(CC)CC(O)c2ccc(C)cc2)cc1 (stereo not shown) [RU-0211290, CCOC1=CC=C(OCCN(CC)CC(O)C2=CC=C(C)C=C2)C=C1] | 152% | 111 ± 8.9% | 145 ± 8.4% | 102 ± 6.3% | 128 ± 6% |  |  | validation NPI at 10 uM [1]: 111; validation NPI at 20 uM [1]: 146; IC50 [1]: < 39.1 nM; ShuminTan.MtbChloride.Primary: NPI% [1]: 152.309%; rv1405c assay NPI at 10 uM [2]: 103; rv1405c assay NPI at 20 uM [2]: 129; IC50 [2]: < 39.1 nM; inhibition at 20 µM [3, 8]: 17.1%; IC50 [3]: > 20 µM
O=S1(=O)CC(S(=O)(=O)Nc2ccccc2-c2cccs2)c2ccccc21 (stereo not shown) [RU-0214604, O=S(=O)(NC1=C(C=CC=C1)C1=CC=CS1)C1CS(=O)(=O)C2=C1C=CC=C2] | 183% | 145 ± 12% | 161 ± 3.2% | 179 ± 26.5% | 213 ± 23.6% |  |  | validation NPI at 10 uM [1]: 146; validation NPI at 20 uM [1]: 162; IC50 [1]: < 39.1 nM; ShuminTan.MtbChloride.Primary: NPI% [1]: 183.08%; rv1405c assay NPI at 10 uM [2]: 181; rv1405c assay NPI at 20 uM [2]: 212; IC50 [2]: < 39.1 nM; inhibition at 20 µM [3, 8]: 14.8%; IC50 [3]: > 20 µM
CCc1nc(Cn2ccnc2-c2nc3c(s2)CCCC3)no1 [RU-0226010, CCC1=NC(CN2C=CN=C2C2=NC3=C(CCCC3)S2)=NO1] | 168% | 125 ± 6.6% | 129 ± 4% | 92.3 ± 12.5% | 104 ± 23.1% |  | 30.4 ± 2.4% | 
N=C1SCC(=O)N1c1ncc(Cc2ccccc2)s1 [RU-0270641, N=C1SCC(=O)N1C1=NC=C(CC2=CC=CC=C2)S1] | 42.5% | 69 ± 5% | 33.9 ± 6.5% | 79.6 ± 11% | 110 ± 12.2% | 12.1 ± 10.5% | 28.8 ± 4.5% | 
O=C(Nc1cccc(C(F)(F)F)c1)c1n[nH]c(=O)c2ccccc12 [RU-0270645, FC(F)(F)C1=CC(NC(=O)C2=NNC(=O)C3=C2C=CC=C3)=CC=C1] | 155% | 142 ± 8.2% | 152 ± 12.1% | 93.4 ± 11.5% | 139 ± 4.6% |  |  | validation NPI at 10 uM [1]: 143; validation NPI at 20 uM [1]: 153; IC50 [1]: < 39.1 nM; ShuminTan.MtbChloride.Primary: NPI% [1]: 154.973%; rv1405c assay NPI at 10 uM [2]: 93.5; rv1405c assay NPI at 20 uM [2]: 138; IC50 [2]: < 39.1 nM; inhibition at 20 µM [3, 8]: 17.7%; IC50 [3]: > 20 µM
O=c1[nH]c(SCC2OCCc3ccccc32)nc2[nH]ncc12 (stereo not shown) [RU-0271878, O=C1NC(SCC2OCCC3=C2C=CC=C3)=NC2=C1C=NN2] | 43.3% | 63.4 ± 5.5% | 24.3 ± 3.8% | 57.7 ± 7% | 24.9 ± 3.6% |  |  | 
CC(NC(=O)C1Cc2cc(Cl)ccc2O1)c1ccc(F)c(F)c1 (stereo not shown) [RU-0272361, CC(NC(=O)C1CC2=C(O1)C=CC(Cl)=C2)C1=CC(F)=C(F)C=C1] | 162% | 152 ± 9% | 215 ± 14% | 83.2 ± 14.8% | 107 ± 4.9% |  |  | 
CC(NC(=O)C1Cc2ccccc2O1)c1ccc(Cl)s1 (stereo not shown) [RU-0272776, CC(NC(=O)C1CC2=C(O1)C=CC=C2)C1=CC=C(Cl)S1] | 231% | 170 ± 3.6% | 192 ± 26.2% | 88.5 ± 5.6% | 105 ± 5.5% |  |  | 
